From patent US9108921B2, “Therapeutic compounds and compositions” (AGIOS PHARMACEUTICALS, INC, priority 2014, dated 2015) come the findings set out here.

One assay concerns the target PKR R510Q (Homo sapiens, UniProt P30613, R510Q). Briefly: PKR Mutant Assay, AC50 against PKR R510Q. The conditions noted are these: mutant PKR R510Q enzyme. The format is biochemical. Put shortly: (§1)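 PK-LDH coupled assay, RT. Enzyme + cpd + PEP/NADH/LDH, 60 min pre-incubation, no ADP. ADP 0.22-1.65 mM to initiate; A340 kinetic read. Cpd 11 pts, 3-fold, 100 μM top.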
Assay [1] addresses T1, PKR WT (Homo sapiens, UniProt P30613). The assay is described as follows: PKR WT cell based AC50 assay. The following applies: wild type PKR.
A further assay deals with PKR R532W (Homo sapiens, UniProt P30613, R532W). Briefly: PKR Mutant Assay, AC50 against PKR R532W. It is filed as biochemical. The following applies: mutant PKR R532W enzyme. Put shortly: as §1
Sequence of PKR R532W (P30613 whole entry R532W): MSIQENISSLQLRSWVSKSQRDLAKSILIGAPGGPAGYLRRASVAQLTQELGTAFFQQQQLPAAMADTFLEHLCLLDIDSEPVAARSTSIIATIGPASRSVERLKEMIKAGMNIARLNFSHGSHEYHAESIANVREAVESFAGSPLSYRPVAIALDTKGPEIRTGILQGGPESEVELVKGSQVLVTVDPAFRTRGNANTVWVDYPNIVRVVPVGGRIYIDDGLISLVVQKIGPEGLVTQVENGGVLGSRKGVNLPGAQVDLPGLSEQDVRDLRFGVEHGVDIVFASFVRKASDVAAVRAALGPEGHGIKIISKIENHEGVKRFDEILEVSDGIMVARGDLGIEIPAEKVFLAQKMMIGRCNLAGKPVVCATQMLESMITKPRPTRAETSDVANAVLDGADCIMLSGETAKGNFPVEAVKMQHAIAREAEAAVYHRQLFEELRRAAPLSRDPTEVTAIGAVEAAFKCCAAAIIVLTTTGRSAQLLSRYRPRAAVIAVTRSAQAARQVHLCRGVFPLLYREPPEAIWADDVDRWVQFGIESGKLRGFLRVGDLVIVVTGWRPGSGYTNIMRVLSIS
The target of assay [2] is T1, PKR WT. Briefly: PKR WT enzymatic AC50 assay. It is filed as biochemical. The following applies: wild type PKR. Put shortly:
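LDH-coupled NADH depletion read as A340 change at room temperature after ADP (0.22-1.65 mM) start. Compounds, tested from 100 μM final in 3-fold steps over 11 points with 1% DMSO, sat 60 min with enzyme (80-400 ng/well), PEP 0.1-0.5 mM and NADH 180 uM in Tris pH 7.5/KCl/MgCl2/DTT/BSA buffer.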

Usually AC50 stands for the midpoint of the concentration-response curve, whichever way the signal moves. Read a low AC50 as greater potency.

Structures are written as SMILES.

Sequence of PKR R510Q (P30613 whole entry R510Q): as the sequence (P30613 whole entry R532W) above, with R510Q, W532R counted along it
T1 sequence (P30613 whole entry): as the sequence (P30613 whole entry R532W) above, with W532R counted along it

For `O=C(c1ccc(NS(=O)(=O)c2cccc3scnc23)cc1)N1CCC(O)(CCC(F)=C(F)F)CC1` [Compound 395, N-(4-(4-hydroxy-4-(3,4,4-trifluorobut-3-enyl)piperidine-1-carbonyl)phenyl)benzo[d]thiazole-4-sulfonamide], the AC50 at PKR R510Q was 101 to 1000 nM; on PKR WT [1], 101 to 1000 nM; on PKR R532W, under 100 nM; on PKR WT [2] it was under 100 nM.

With `O=C(c1ccc(NS(=O)(=O)c2cccc3cccnc23)cc1)N1CCC(O)(c2cccc(F)c2F)CC1` [Compound 100, N-[4-[4-(2,3-difluorophenyl)-4-hydroxy-piperidine-1-carbonyl]phenyl]quinoline-8-sulfonamide], the AC50 at PKR R510Q, on PKR WT [1], on PKR R532W and on PKR WT [2] was under 100 nM each time.

On to `O=C(c1ccc(NS(=O)(=O)c2cccc3c(O)ncnc23)cc1)N1CCC(O)(c2cccc(F)c2F)CC1` [Compound 428], for which the AC50 at PKR R510Q is 101 to 1000 nM; on PKR WT [1], under 100 nM; at PKR R532W, under 100 nM; on PKR WT [2], under 100 nM.

For the molecule `Cc1nc(C(=O)N2CCC(O)(c3ccccc3Cl)CC2)ccc1NS(=O)(=O)c1cccc2cccnc12` [Compound 210, N-(6-(4-(2-chlorophenyl)-4-hydroxypiperidine-1-carbonyl)-2-methylpyridin-3-yl)quinoline-8-sulfonamide], the AC50 at PKR R510Q was 101 to 1000 nM; at PKR WT [1], 101 to 1000 nM; on PKR R532W, under 100 nM; at PKR WT [2] it was under 100 nM.

For the molecule `O=C(c1ccc(NS(=O)(=O)c2cccc3cccnc23)cc1)N1CCC(O)(CC2CC2)CC1` [Compound 144, N-(4-(4-(cyclopropylmethyl)-4-hydroxypiperidine-1-carbonyl)phenyl)quinoline-8-sulfonamide], the AC50 at PKR R510Q, on PKR WT [1], on PKR R532W and at PKR WT [2] was under 100 nM throughout.

In the case of `O=C(c1ccc(NS(=O)(=O)c2cccc3cccnc23)cc1F)N1CCC(O)(Cc2ccccc2)CC1` [Compound 115, N-(4-(4-benzyl-4-hydroxypiperidine-1-carbonyl)-3-fluorophenyl)quinoline-8-sulfonamide], the AC50 on PKR R510Q, on PKR WT [1], at PKR R532W and at PKR WT [2] was under 100 nM throughout.

On to `O=C(c1ccc(NS(=O)(=O)c2cccc3scnc23)cc1)N1CCC(O)(CCCC(F)(F)F)CC1` [Compound 394, N-(4-(4-hydroxy-4-(4,4,4-trifluorobutyl)piperidine-1-carbonyl)phenyl)benzo[d]thiazole-4-sulfonamide], for which the AC50 on PKR R510Q is 101 to 1000 nM; on PKR WT [1], under 100 nM; on PKR R532W it was under 100 nM; at PKR WT [2], under 100 nM.

For the molecule `CC(C)CC1(CO)CCN(C(=O)c2ccc(NS(=O)(=O)c3cccc4cccnc34)cc2)CC1` [Compound 172, N-(4-(4-(hydroxymethyl)-4-isobutylpiperidine-1-carbonyl)phenyl)quinoline-8-sulfonamide], the AC50 at PKR R510Q, at PKR WT [1], on PKR R532W and on PKR WT [2] was under 100 nM throughout.

On to `O=C(c1ccc(NS(=O)(=O)c2cccc3cccnc23)cc1)N1CCC(O)(Cc2ccccc2C(F)(F)F)CC1` [Compound 109, N-(4-(4-hydroxy-4-(2-(trifluoromethyl)benzyl)piperidine-1-carbonyl)phenyl)quinoline-8-sulfonamide], for which the AC50 on PKR R510Q, at PKR WT [1], at PKR R532W and on PKR WT [2] was under 100 nM in each case.

As for `O=C(c1ccc(NS(=O)(=O)c2cccc3cccnc23)cc1)N1CCC(O)(c2ncccc2C(F)(F)F)CC1` [Compound 164, N-(4-(4-hydroxy-4-(3-(trifluoromethyl)pyridin-2-yl)piperidine-1-carbonyl)phenyl)quinoline-8-sulfonamide], the AC50 on PKR R510Q is 101 to 1000 nM; on PKR WT [1], under 100 nM; at PKR R532W, under 100 nM; on PKR WT [2], under 100 nM.

Consider `CC(F)(F)CCC1(O)CCN(C(=O)c2ccc(NS(=O)(=O)c3cccc4scnc34)cc2)CC1` [Compound 387, N-(4-(4-(3,3-difluorobutyl)-4-hydroxypiperidine-1-carbonyl)phenyl)benzo[d]thiazole-4-sulfonamide], for which the AC50 at PKR R510Q was 101 to 1000 nM; on PKR WT [1] it was 101 to 1000 nM; at PKR R532W it was under 100 nM; at PKR WT [2], under 100 nM.

On to `O=C(c1ccc(NS(=O)(=O)c2cccc3cccnc23)cc1)N1CCC(O)(C2CC2)CC1` [Compound 260, N-(4-(4-cyclopropyl-4-hydroxypiperidine-1-carbonyl)phenyl)quinoline-8-sulfonamide], for which the half-maximal activity concentration (AC50) is 1010 to 10000 nM at PKR R510Q, 1010 to 10000 nM on PKR WT [1], 101 to 1000 nM on PKR R532W and 101 to 1000 nM on PKR WT [2].

`O=C(c1ccc(NS(=O)(=O)c2cccc3nccnc23)cc1)N1CCC(O)(CCCC(F)F)CC1` [Compound 400, N-(4-(4-(4,4-difluorobutyl)-4-hydroxypiperidine-1-carbonyl)phenyl)quinoxaline-5-sulfonamide]: the AC50 was 101 to 1000 nM on PKR R510Q, under 100 nM on PKR WT [1], under 100 nM on PKR R532W and under 100 nM on PKR WT [2].

For `Cc1nc2c(S(=O)(=O)Nc3ccc(C(=O)N4CCC(O)(c5ccccc5Cl)CC4)cc3)cccc2o1` [Compound 383, N-(4-(4-(2-chlorophenyl)-4-hydroxypiperidine-1-carbonyl)phenyl)-2-methylbenzo[d]oxazole-4-sulfonamide], the half-maximal activity concentration (AC50) is 101 to 1000 nM on PKR R510Q, under 100 nM on PKR WT [1], under 100 nM at PKR R532W and under 100 nM on PKR WT [2].

As to `O=C(c1ccc(NS(=O)(=O)c2cccc3cccnc23)cc1)N1CCC(O)(c2ccncc2Cl)CC1` [Compound 161, N-(4-(4-(3-chloropyridin-4-yl)-4-hydroxypiperidine-1-carbonyl)phenyl)quinoline-8-sulfonamide], the AC50 on PKR R510Q was 101 to 1000 nM; at PKR WT [1] it was under 100 nM; at PKR R532W, under 100 nM; at PKR WT [2], under 100 nM.

As for `CC1(CC2(O)CCN(C(=O)c3ccc(NS(=O)(=O)c4cccc5cccnc45)cc3)CC2)CC1` [Compound 121, N-(4-(4-hydroxy-4-((1-methylcyclopropyl)methyl)piperidine-1-carbonyl)phenyl)quinoline-8-sulfonamide], the concentration at half-maximal activity (AC50) at PKR R510Q, on PKR WT [1], at PKR R532W and on PKR WT [2] was under 100 nM each time.

Regarding `CC(CC1(O)CCN(C(=O)c2ccc(NS(=O)(=O)c3cccc4scnc34)cc2)CC1)C(F)F` (stereo not drawn) [Compound 405, N-(4-(4-(3,3-difluoro-2-methylpropyl)-4-hydroxypiperidine-1-carbonyl)phenyl)benzo[d]thiazole-4-sulfonamide], the concentration at half-maximal activity (AC50) at PKR R510Q, on PKR WT [1], at PKR R532W and on PKR WT [2] was 101 to 1000 nM throughout.

With `O=C(c1ccc(NS(=O)(=O)c2cccc3cccnc23)cc1)N1CCC(O)(Cc2ccccc2F)CC1` [Compound 110, N-(4-(4-(2-fluorobenzyl)-4-hydroxypiperidine-1-carbonyl)phenyl)quinoline-8-sulfonamide], the AC50 on PKR R510Q, on PKR WT [1], at PKR R532W and on PKR WT [2] was under 100 nM throughout.

Regarding `CC(C)CC1(O)CCN(C(=O)c2ccc(NS(=O)(=O)c3cccc4ocnc34)cc2)CC1` [Compound 379, N-(4-(4-hydroxy-4-isobutylpiperidine-1-carbonyl)phenyl)benzo[d]oxazole-4-sulfonamide], the AC50 at PKR R510Q, at PKR WT [1], on PKR R532W and at PKR WT [2] was 101 to 1000 nM each time.

On to `Cc1cc(C(=O)N2CCC(O)(c3cccc(F)c3F)CC2)ccc1NS(=O)(=O)c1cccc2nccnc12` [Compound 175, N-(4-(4-(2,3-difluorophenyl)-4-hydroxypiperidine-1-carbonyl)-2-methylphenyl)quinoxaline-5-sulfonamide], for which the AC50 at PKR R510Q is 101 to 1000 nM; on PKR WT [1], under 100 nM; on PKR R532W it was under 100 nM; at PKR WT [2], under 100 nM.

Consider `O=C(c1ccc(NS(=O)(=O)c2cccc3cccnc23)cc1)N1CCC(O)(c2cnsc2)CC1` [Compound 353], for which the AC50 at PKR R510Q was 101 to 1000 nM; at PKR WT [1], under 100 nM; at PKR R532W it was under 100 nM; on PKR WT [2], under 100 nM.

In the case of `COc1cccc(CC2(O)CCN(C(=O)c3ccc(NS(=O)(=O)c4cccc5cccnc45)cc3)CC2)c1` [Compound 135, N-(4-(4-hydroxy-4-(3-methoxybenzyl)piperidine-1-carbonyl)phenyl)quinoline-8-sulfonamide], the concentration at half-maximal activity (AC50) on PKR R510Q was 101 to 1000 nM; at PKR WT [1], under 100 nM; on PKR R532W, under 100 nM; at PKR WT [2], under 100 nM.

`O=C(c1ccc(NS(=O)(=O)c2cccc3ccoc23)cc1)N1CCC(O)(c2ccccc2Cl)CC1` [Compound 186, N-(4-(4-(2-chlorophenyl)-4-hydroxypiperidine-1-carbonyl)phenyl)benzofuran-7-sulfonamide]: the AC50 on PKR R510Q was 101 to 1000 nM; on PKR WT [1] it was 101 to 1000 nM; at PKR R532W, under 100 nM; at PKR WT [2], under 100 nM.

Take `O=C(c1ccc(NS(=O)(=O)c2cccc3ccc(F)nc23)cc1)N1CCC(O)(c2ccccc2Cl)CC1` [Compound 224, N-(4-(4-(2-chlorophenyl)-4-hydroxypiperidine-1-carbonyl)phenyl)-2-fluoroquinoline-8-sulfonamide]: the AC50 was 1010 to 10000 nM at PKR R510Q, 101 to 1000 nM on PKR WT [1], under 100 nM at PKR R532W and under 100 nM on PKR WT [2].
